Assay results reported in patent publication EP0335637A2, “Nerve growth factor peptides” (THE REGENTS OF THE UNIVERSITY OF CALIFORNIA, priority 1988, dated 1989).
Where a SMILES comes first, the peptide text is derived from it.

Legend:
[1] = test system: embryologic day 10 dorsal root ganglia neurons; test: NGF-independent neurite outgrowth in response to CNTF (nonspecific toxicity check); format: cell-based, chick; details: C5 up to 2.6p moles/ml (Figure 3)
Method: Potential nonspecific toxicity of peptide C5 (KGKE) was investigated with embryologic day 10 dorsal root ganglia neurons which also extend neurites in the presence of ciliary neurotrophic factor (CNTF). The effect of peptide C5 on NGF-independent neurite outgrowth was assessed.

[2] = Resistance to proteolysis during cell culture (HPLC recovery); format: in vitro ADME; details: after 24 hr in culture; 2.0 µmole/ml peptide, 100 pg/ml NGF and cells
Method: The resistance of peptide C5 to proteolytic cleavage during cell culture was assessed. Quadruplicate wells were prepared each containing 2.Oµ mole/ml of peptide in culture medium, 100 pg/ml NGF and cells as described above. After 24 hr in culture, 320 ul (4 wells x 80 ul) of culture medium were collected. Fresh culture medium containing 2.0 µmole/ml of peptide was also prepared. Both samples of peptide-containing medium were filtered through a Centricon membrane (Amicon, Bedford) with a molecular weight cutoff of 10,000. 250 µl of filtrate was loaded onto a C18 uBondapak analytic HPLC column and run under the same conditions described above for peptide purification. The quantity of peptides in fresh compared to post-culture medium was determined by integration of their absorbance peaks. After 24 hr in culture, more than 80-85% of the initial quantity of peptide C5 was recovered.

initial quantity of peptide recovered [2]: 80-85%
Structure (SMILES): NCCCC[C@H](NC(=O)CNC(=O)[C@@H](N)CCCCN)C(=O)N[C@@H](CCC(=O)O)C(N)=O [C5, KGKE] (H-KGKE-NH2)
effect on number of neurons bearing neurites in response to CNTF [1]: no detectable effect
